According to PubChem BioAssay (NCI):
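Compound exposure: 48 hours, 5 concentrations, 96-well plates. GI50: concentration for 50% inhibition of growth. TGI denotes the concentration required for complete inhibition of growth.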

Tests used:
Test in all cases: NCI anticancer screen, dose series, 48 h
NCI-H460 lung = test system: NCI-H460 lung
786-0 renal = test system: 786-0 renal
UO-31 renal = test system: UO-31 renal
OVCAR-3 ovarian = test system: OVCAR-3 ovarian
MALME-3M melanoma = test system: MALME-3M melanoma
OVCAR-5 ovarian = test system: OVCAR-5 ovarian
SNB-19 CNS = test system: SNB-19 CNS
CCRF-CEM leukemia = test system: CCRF-CEM leukemia
NCI-H226 lung = test system: NCI-H226 lung
OVCAR-8 ovarian = test system: OVCAR-8 ovarian

| Compound | TGI (NCI-H460 lung) | TGI (786-0 renal) | TGI (UO-31 renal) | TGI (OVCAR-3 ovarian) | TGI (MALME-3M melanoma) | TGI (OVCAR-5 ovarian) | TGI (SNB-19 CNS) | TGI (CCRF-CEM leukemia) | TGI (NCI-H226 lung) | TGI (OVCAR-8 ovarian) | GI50 (NCI-H460 lung) | GI50 (786-0 renal) | GI50 (UO-31 renal) | GI50 (OVCAR-3 ovarian) | GI50 (MALME-3M melanoma) | GI50 (OVCAR-5 ovarian) | GI50 (SNB-19 CNS) | GI50 (CCRF-CEM leukemia) | GI50 (NCI-H226 lung) | GI50 (OVCAR-8 ovarian) |
| --- | --- | --- | --- | --- | --- | --- | --- | --- | --- | --- | --- | --- | --- | --- | --- | --- | --- | --- | --- | --- |
| CCOC(OC1=C(C#N)CCCC1)C(C)[Se]c1ccccc1 (stereo not given) | > 100 µM | 31.4 µM | > 100 µM | > 100 µM | > 100 µM | > 100 µM | > 100 µM | 65 µM | > 100 µM | 63.9 µM | – | – | – | – | – | – | – | – | – | – |
| O=C1C=CC(O)C2C1CC13SSC4(CC5C(=O)C=CC(O)C5N4C1=O)C(=O)N23 (stereo not given) | > 34.2 µM | 0.49 µM | 1.27 µM | 0.53 µM | 1.22 µM | 0.571 µM | 5.19 µM | 1.95 µM | 1.19 µM | 0.271 µM | – | – | – | – | – | – | – | – | – | – |
| CC(=O)C1=CCC2c3[nH]c4ccccc4c3CCN2C1 (stereo not given) | > 100 µM | > 100 µM | > 100 µM | > 100 µM | > 100 µM | > 100 µM | > 100 µM | > 100 µM | > 100 µM | > 100 µM | – | – | – | – | – | – | – | – | – | – |
| Oc1ccc(Cl)cc1CNc1nc2ccccc2[nH]1 | 26.3 µM | 31.4 µM | 19.1 µM | 29 µM | 32.9 µM | 34.4 µM | 40.3 µM | 88.5 µM | 50.2 µM | 30.8 µM | 12.5 µM | 14.3 µM | 4730 nM | 12.7 µM | 13.8 µM | 17.8 µM | 14.4 µM | 17.9 µM | 19.6 µM | 12.9 µM |
| CCOC(=O)c1c(C)c(C)n2c1NC(=O)C2 | > 100 µM | 98.9 µM | > 100 µM | > 100 µM | > 85.7 µM | > 100 µM | > 100 µM | > 100 µM | > 100 µM | > 100 µM | – | – | – | – | – | – | – | – | – | – |
| Cc1cc2c(C)n(Cc3ccc(Cl)cc3Cl)nc2c(C(=O)O)c1C | > 100 µM | > 100 µM | > 100 µM | > 100 µM | > 100 µM | > 100 µM | > 100 µM | > 100 µM | > 100 µM | > 100 µM | – | – | – | – | – | – | – | – | – | – |
| COc1ccc(CCNCCCC2c3ccccc3-c3ccccc32)cc1OC | 18.3 µM | 28.9 µM | 24.4 µM | 31.2 µM | 27 µM | 33.4 µM | 31.8 µM | 49 µM | 31.4 µM | 41.8 µM | – | – | – | – | – | – | – | – | – | – |
| O=C(NO)c1ccc(O)c(O)c1 | > 100 µM | > 100 µM | > 100 µM | > 100 µM | > 100 µM | > 100 µM | > 100 µM | > 100 µM | > 100 µM | > 100 µM | – | – | – | – | – | – | – | – | – | – |
| C=C1c2c(Cl)ccc(O)c2C(O)=C2C(=O)[C@]3(O)C(O)=C(C(N)=O)C(=O)[C@@H](N(C)C)[C@@H]3[C@@H](O)[C@H]12 | 7.54 µM | 5.22 µM | 6.22 µM | 5.25 µM | 3.45 µM | 25.4 µM | > 50 µM | 39.6 µM | 8.91 µM | 8.12 µM | 1.17 µM | 1.17 µM | 1190 nM | 1.36 µM | 1.15 µM | 2.09 µM | 1.44 µM | 1.45 µM | 1.59 µM | 1.32 µM |
